One assay has as its target GST-JNK3 (Homo sapiens, UniProt P53779). The experiment in a line: JNK3 in vitro assay (33P incorporation into c-jun, SPA). The format is biochemical. How it is done:
The phosphorylation of c-jun by JNK2 or JNK3 may be followed by monitoring the incorporation of ^33P into c-jun following the protocol below. The inhibitory activity of the compounds according to formula I, in respect of c-jun phosphorylation through JNK, is determined by calculating the phosphorylation activity of a JNK in the presence or absence of the test compounds according to formula I.
JNK3 and/or -2 assays are performed in 96 well NM plates: incubation of 0.5 μg of recombinant, pre-activated GST-JNK3 or GST-JNK2 with 1 μg of recombinant, biotinylated GST-c-Jun and 2 μM ^33γ-ATP (2 nCi/μl), in the presence or absence of compounds according to formula I and in a reaction volume of 50 μl containing 50 mM Tris-HCl, pH 8.0; 10 mM MgCl2; 1 mM Dithiothreitol, and 100 μM NaVO4. The incubation is performed for 120 min. at R.T and stopped upon addition of 200 μl of a solution containing 250 μg of Streptavidine-coated SPA beads (Amersham, Inc.)*, 5 mM EDTA, 0.1% Triton X-100 and 50 μM ATP, in phosphate saline buffer. After incubation for 60 minutes at RT, beads are sedimented by centrifugation at 1500×g for 5 minutes, resuspended in 200 μl of PBS containing 5 mM EDTA, 0.1% Triton X-100 and 50 μM ATP and the radioactivity measured in a scintillation β counter, following sedimentation of the beads as described above. By replacing biotinylated GST-c Jun with biotinylated GST-1ATF2 or biotinylated myelin basic protein, this assay may also be used to measure inhibition of pre-activated p38 and ERK MAP Kinases, respectively.

Assay [1] concerns Hela luciferase reporter-c-Jun (HLR-c-Jun) cell lines. The experiment in a line: C-Jun reporter assay. The format is cell-based. Conditions: Homo sapiens, MEKK-1 transfected HLR-c-Jun cells. The text has this: The phosphorylation of the transcriptional factor, c-jun, by JNK in the MAP kinase signal transduction pathway can be followed via a trans-reporting system such as the commercially available PathDetect® (32).
A trans-reporting system allows one to follow, via Luciferase activity, the activation status of a fusion trans-activator protein. The trans-activator protein consists of the activation domain of the transcriptional factor of interest (c-jun) fused with a yeast transcriptional activator, GAL4 DNA binding domain (dbd). The GAL4 dbd has the advantage that no known mammalian transcriptional factors can bind to it and therefore the background noise of the assay is very low.
In the present case, Hela luciferase reporter-c-Jun (HLR-c-Jun) cell lines which constitutively express GAL4-cJun were used.
The MEKK-1 gene was inserted. MEKK-1 is a MAPKKK which triggers the activation of JNK. Expression of wild type MEKK-1 is sufficient for JNK activation (33).
Once, JNK is activated it can induce the phosphorylation of the c-jun domain of the fusion trans-activator protein (GAL4dbd-cJun) which forms a dimer. The dimer is then is able to bind to a GAL4 upstream activating sequence (GAL4 UAS) of the reporter which activates Luciferase expression.
Luciferase expression is detected by luminescence using a simple assay such as Dual-Luciferase® Reporter Assay System (34) in which Renilla is used as a “control reporter”.
Inhibition of JNK is observed as a decrease in Luciferase expression and detected by a decrease in luminescence.
HLR-c-Jun cells are cultured in DMEM High Glc supplemented with 10% FCS (Sigma), 2 mM Glutamine (Gibco), P/S, Hygromycin b 100 μg/mL and G418 250 μg/mL.
The cell suspensions are diluted with medium to give about 3.5×10^6 cells/mL and […] of cell suspension are put onto 2 10 cm culture dishes containing 9 mL of culture medium.
Transfections • Control: 0.2 μg pTK Renilla, 5.8 μg pBluescript KS, 500 μl OPTIMEM (GOBCO), 18 μl Fugene 6. • Induced: 0.1 μg pMEKK1, 0.2 μg pTK Renilla, 5.7 μg pBluescript KS, 500 μl OPTIEM (GIBCO), 18 μl Fugene 6 30′ RT.
The transfection mixture is added to the plated cells. The plates are incubated over night at 37° C. in a humidified atmosphere of 5% CO2 in air.
A 96 wells plate (100 μl of culture medium per well) is prepared. Negative control (vehicle): 2 μl of DMSO is added to the 100 μl (in triplicate). […]
The medium is removed from the plate and the cells are washed two times with 100 μl PBS. […] The luminometer reading is recorded.
−50 μl of Luciferase Assay Reagent II are injected and readings are recorded at 5 and 10 minutes.
50 μl of Stop & Glo® Reagent are injected and readings are recorded at 5 and 10 minutes.
The relative luminescence is then measured: RLU Luciferase/RLU Renilla.
(Reporter assays use an easily measured gene product as a stand-in for the process of interest.)

Where only a bound is given, the exact number is not on record here.

GST-JNK3, sequence (P53779 whole entry): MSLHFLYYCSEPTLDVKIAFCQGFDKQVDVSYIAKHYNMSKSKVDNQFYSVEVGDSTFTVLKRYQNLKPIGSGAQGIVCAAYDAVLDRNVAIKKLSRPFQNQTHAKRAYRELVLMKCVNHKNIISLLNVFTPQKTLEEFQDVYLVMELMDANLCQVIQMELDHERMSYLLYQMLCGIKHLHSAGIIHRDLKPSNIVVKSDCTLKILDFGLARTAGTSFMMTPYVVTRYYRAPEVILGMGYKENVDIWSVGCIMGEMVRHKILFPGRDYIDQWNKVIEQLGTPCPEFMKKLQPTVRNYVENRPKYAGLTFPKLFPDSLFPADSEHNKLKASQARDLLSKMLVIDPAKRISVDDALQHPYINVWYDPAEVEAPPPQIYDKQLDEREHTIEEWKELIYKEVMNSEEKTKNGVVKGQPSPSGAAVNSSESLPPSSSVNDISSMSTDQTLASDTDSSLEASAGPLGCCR

One may read the IC50 as the concentration that inhibits the measured activity by half. The low end stands for inhibition by little substance, the high end for a need for much substance. `COc1cccc(C(=O)NCc2ccc(S(=O)(=O)N3CCC(NCc4ccc(C(F)(F)F)cc4)CC3)s2)c1` [Example 1, 3-Methoxy-N-{[5-({4-[(4-trifluoromethylbenzyl)amino]piperidin-1-yl}sulfonyl)thien-2-yl]methyl}benzamide]: the IC50 was < 600 nM against GST-JNK3 and < 700 nM in assay [1].

Values taken from US7544700B2, “Pharmaceutically active sulfonamide derivatives bearing both lipophilic and ionisable moieties as inhibitors of protein JunKinases” (Laboratoires Serono SA, priority 2000, dated 2009).
